Three compounds from US20100196475A1, “CONTROLLED RELEASE TABLET FORMULATION CONTAINING MAGNESIUM ALUMINOMETASILICATE” (priority 2007, published 2010) can be followed below.

≈ marks a conversion by molar mass, not a printed value. Structures can show the parent of a compound that is named as a salt.

The data set in a line: physchem. The conditions noted are these: for solubility: water. It counts as physicochemical. The protocol: Four different active agents with different solubilities were selected for the preparation of multi-layer tablets, as follows:
9410 (Prednisone)—solubility of 0.1 mg/ml in water.

With `CC(C)(Cc1c[nH]c2ccccc12)NCC(O)COc1ccccc1C#N` (stereo not drawn) [compound 8110, Bucindolol], the “solubility described in words” value was “freely soluble” and the solubility came out at 257 mg/mL (≈ 707 mM).
For the compound `COc1ccc([C@@H]2Sc3ccccc3N(CCN(C)C)C(=O)[C@@H]2OC(C)=O)cc1` [compound 8403, Diltiazem HCl], the “solubility described in words” value is on record as “Very soluble” and the solubility came out at 1200 mg/mL.
`C[C@]12C=CC(=O)C=C1CC[C@@H]1[C@@H]2C(=O)C[C@@]2(C)[C@H]1CC[C@]2(O)C(=O)CO` [compound 9410, Prednisone]: the “solubility described in words” value is on record as “soluble” and the solubility came to 0.1 mg/mL (≈ 0.279 mM).

One may read the solubility as the concentration that dissolves in the medium under given conditions. The low end stands for little dissolved substance, the high end for much dissolved substance.
